Laboratory results from patent publication US20220323626A1, “Compositions, Kits, Methods and Uses for Preventing Microbial Growth” (Collidion, Inc., priority 2019, published 2022).

Test system: Staphylococcus aureus (ATCC 29213)
Experiment: Microbiostatic assay: antimicrobial effectiveness test according to USP-51, viable colony counts over 28 days
Format: cell-based
Conditions: inferred from the initial assays (7-log reduction at 0.5 ppm and above)
Description: To prepare stock cultures of pathogenic bacteria, 10 mL nutrient broth was inoculated using a stock culture of Staphylococcus aureus (ATCC 29213) and incubated on an orbital shaker for 24±2 hours at approximately 150 rpm at 36±1° C. This culture was used to inoculate Tryptic Soy Agar (TSA) plates. Each plate was inoculated with the culture. Each plate was incubated for up to 48 hours at 30° C. to 35° C. Following incubation, suspensions were prepared by adding growth from TSA plates into a tube containing sterile water. Each tube was then vortexed and an aliquot was serially diluted and plated onto TSA plate for further numeration. The final numeration count uses aliquot volume, count obtained on TSA plate and the total original volume of culture. […]
Each composition was tested over a seven log dilution series of pathogen bacteria assays by preparing samples containing 200 μL of a pathogenic bacteria suspension, 20 μL of an organic load, and 20,000 μL of a composition disclosed herein. […] The presence of viable bacteria was then measured by counting the number of colonies observed on the agar medium for each assay sample. Log reduction is determined by taking the log10 of the number calculated by taking the number of viable pathogenic bacteria colonies present in the assay sample without serum divided by the number of viable pathogenic bacteria colonies present in the assay sample with serum. […]

hypochlorous acid
minimum microbiocidal concentration of hypochlorous acid or free available chlorine in the disclosed compositions: approximately 0.5 ppm
